This is an account of results in PMC4380987 (Protein Science : A Publication of the Protein Society, 2014).

Molecules are shown by their SMILES.

The target in this assay is Edmanase (engineered cruzain) (Trypanosoma cruzi, UniProt P25779, C147G/G187S/A260C/L282Y). The class given is biochemical.

For the compound `CC(=O)c1nc(Nc2ccccc2)sc1C` [1-(2-anilino-5-methyl-1,3-thiazol-4-yl)-ethanone], the IC50 was 1.14 mM.

As a reminder, the IC50 is the concentration needed to halve the response being measured. A lower IC50 goes with higher potency.
